Measurements taken from PubChem BioAssay AID256 (DTP/NCI, 2004).
Values joined by “and” are separate entries in the source; they are usually repeats but may differ in a detail not shown here. Equal values may be shown once. Inconclusive results and toxic doses are left out. Rule for the calls: active = survival T/C of 150% or more; inactive = T/C below 125% in these data.

System: CD2F1 mice, L1210 leukemia ip, survival T/C
Assay: NCI In Vivo Anticancer Drug Screen. Data for tumor model L1210 Leukemia (intraperitoneal) in CD2F1 (CDF1) mice
Settings: higher = longer survival
Summary of the method: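 Each value reflects a quotient of treated over vehicle control outcomes in mice with a transplanted tumor.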

[1] = endpoint: mean survival time, dose: 100.0 mg/kg/injection, schedule: Q04DX003 (ip), vehicle: saline with Tween-80
[2] = endpoint: mean survival time, dose: 200.0 mg/kg/injection, schedule: Q04DX003 (ip), vehicle: saline with Tween-80
[3] = endpoint: mean survival time, dose: 400.0 mg/kg/injection, schedule: Q04DX003 (ip), vehicle: saline with Tween-80
[4] = endpoint: mean survival time, dose: 100.0 mg/kg/injection, schedule: Q04DX002 (ip), vehicle: saline with Tween-80
[5] = endpoint: mean survival time, dose: 200.0 mg/kg/injection, schedule: Q04DX002 (ip), vehicle: saline with Tween-80
[6] = endpoint: mean survival time, dose: 100.0 mg/kg/injection, schedule: Q01DX009 (ip), vehicle: saline with Tween-80
[7] = endpoint: mean survival time, dose: 200.0 mg/kg/injection, schedule: Q01DX009 (ip), vehicle: saline with Tween-80
[8] = endpoint: mean survival time, dose: 400.0 mg/kg/injection, schedule: Q01DX009 (ip), vehicle: saline with Tween-80

Measured: T/C

Cc1ccc(C2NC(=S)N3C(c4ccc(C)cc4)NC(=S)N23)cc1 (configuration not stated)
inactive: endpoint: median survival time, dose: 25.0 mg/kg/injection, schedule: Q01DX009 (ip), vehicle: Klucel (hydroxypropylcellulose) (HPC) 105 % of control | endpoint: median survival time, dose: 50.0 mg/kg/injection, schedule: Q01DX009 (ip), vehicle: Klucel (hydroxypropylcellulose) (HPC) 104 % of control | endpoint: median survival time, dose: 100.0 mg/kg/injection, schedule: Q01DX009 (ip), vehicle: Klucel (hydroxypropylcellulose) (HPC) 106 % of control | endpoint: median survival time, dose: 200.0 mg/kg/injection, schedule: Q01DX009 (ip), vehicle: Klucel (hydroxypropylcellulose) (HPC) 104 % of control | endpoint: median survival time, dose: 400.0 mg/kg/injection, schedule: Q01DX009 (ip), vehicle: Klucel (hydroxypropylcellulose) (HPC) 101 % of control | endpoint: median survival time, dose: 800.0 mg/kg/injection, schedule: Q01DX009 (ip), vehicle: Klucel (hydroxypropylcellulose) (HPC) 106 % of control

COc1cc(C(C)c2cc3c(cc2OCCO)OCO3)cc(OC)c1OC (configuration not stated)
inactive: endpoint: median survival time, dose: 25.0 mg/kg/injection, schedule: Q01DX009 (ip), vehicle: saline with Tween-80 96 % of control and 106 % of control | endpoint: median survival time, dose: 50.0 mg/kg/injection, schedule: Q01DX009 (ip), vehicle: saline with Tween-80 106 % of control and 109 % of control | endpoint: median survival time, dose: 100.0 mg/kg/injection, schedule: Q01DX009 (ip), vehicle: saline with Tween-80 106 % of control and 110 % of control

Cc1c(Cl)cccc1NC(=O)CCl
inactive: [1] 100 % of control | [2] 93 % of control | [3] 90 % of control

FC(F)(F)c1ccc(Cl)c(N=C=S)c1
inactive: [4] 104 % of control | [5] 93 % of control

C=C1C(C)C2C(Cc3ccccc3)NC(=O)C23C(OC(C)=O)C=CC(C)(O)C(=O)C(C)C/C=C/C3C1O (configuration not stated)
inactive: endpoint: mean survival time, dose: 0.63 mg/kg/injection, schedule: Q01DX009 (ip), vehicle: Klucel (hydroxypropylcellulose) (HPC) 101 % of control | endpoint: mean survival time, dose: 1.25 mg/kg/injection, schedule: Q01DX009 (ip), vehicle: Klucel (hydroxypropylcellulose) (HPC) 101 % of control | endpoint: mean survival time, dose: 2.5 mg/kg/injection, schedule: Q01DX009 (ip), vehicle: Klucel (hydroxypropylcellulose) (HPC) 95 % of control | endpoint: mean survival time, dose: 5.0 mg/kg/injection, schedule: Q01DX009 (ip), vehicle: Klucel (hydroxypropylcellulose) (HPC) 98 % of control

Cc1cccc(Cl)c1NC(=O)Nc1cc(Cl)ccc1Oc1c(Cl)cc(Cl)cc1S(=O)(=O)O
inactive: [6] 90 % of control | [7] 90 % of control

NC(=O)SCCCCl
inactive: [6] 103 % of control | endpoint: mean survival time, dose: 118.0 mg/kg/injection, schedule: Q01DX009 (ip), vehicle: saline with Tween-80 106 % of control | endpoint: mean survival time, dose: 178.0 mg/kg/injection, schedule: Q01DX009 (ip), vehicle: saline with Tween-80 112 % of control | [7] 113 % of control | endpoint: mean survival time, dose: 266.0 mg/kg/injection, schedule: Q01DX009 (ip), vehicle: saline with Tween-80 124 % of control

COc1ccc(-c2[nH]c(=S)[nH]c(=O)c2CCO)cc1
inactive: [6] 93 % of control | [1] 90 % of control | [2] 88 % of control | [8] 92 % of control | [3] 95 % of control

CCCCOC(=S)S.[Zn+2]
inactive: [1] 94 % of control | [2] 108 % of control | [3] 89 % of control

COc1cc2c(cc1OC)C(C#N)N(C(=O)c1ccccc1)C=C2 (configuration not stated)
inactive: endpoint: mean survival time, dose: 25.0 mg/kg/injection, schedule: Q01DX009 (ip), vehicle: water 93 % of control | endpoint: mean survival time, dose: 50.0 mg/kg/injection, schedule: Q01DX009 (ip), vehicle: water 100 % of control | endpoint: mean survival time, dose: 100.0 mg/kg/injection, schedule: Q01DX009 (ip), vehicle: water 93 % of control | endpoint: mean survival time, dose: 200.0 mg/kg/injection, schedule: Q01DX009 (ip), vehicle: water 94 % of control | endpoint: mean survival time, dose: 400.0 mg/kg/injection, schedule: Q01DX009 (ip), vehicle: water 86 % of control

O=C1c2ccccc2C(=O)N1CNc1cccc(NCN2C(=O)c3ccccc3C2=O)n1
inactive: [1] 104 % of control | [2] 106 % of control | [3] 90 % of control

O=C(CCl)Nc1nccs1
inactive: endpoint: mean survival time, dose: 12.5 mg/kg/injection, schedule: Q01DX009 (ip), vehicle: saline with Tween-80 100 % of control | endpoint: mean survival time, dose: 25.0 mg/kg/injection, schedule: Q01DX009 (ip), vehicle: saline with Tween-80 95 % of control | endpoint: mean survival time, dose: 50.0 mg/kg/injection, schedule: Q01DX009 (ip), vehicle: saline with Tween-80 97 % of control | [6] 92 % of control

C#CCO
inactive: endpoint: mean survival time, dose: 12.0 mg/kg/injection, schedule: Q04DX003 (ip), vehicle: saline 94 % of control | endpoint: mean survival time, dose: 25.0 mg/kg/injection, schedule: Q04DX003 (ip), vehicle: saline 97 % of control | endpoint: mean survival time, dose: 50.0 mg/kg/injection, schedule: Q04DX003 (ip), vehicle: saline 103 % of control

S=C(S)NCCc1ccccn1
inactive: [6] 102 % of control | [7] 94 % of control | [8] 103 % of control

CC(C)C1OC(C(F)(F)F)(C(F)(F)Cl)CC1=O (configuration not stated)
inactive: endpoint: mean survival time, dose: 100.0 mg/kg/injection, schedule: Q01DX001 (ip), vehicle: Klucel (hydroxypropylcellulose) (HPC) 86 % of control | endpoint: mean survival time, dose: 200.0 mg/kg/injection, schedule: Q01DX001 (ip), vehicle: Klucel (hydroxypropylcellulose) (HPC) 97 % of control | endpoint: mean survival time, dose: 400.0 mg/kg/injection, schedule: Q01DX001 (ip), vehicle: Klucel (hydroxypropylcellulose) (HPC) 98 % of control

O=C(O)C1CCc2c(cnn2-c2ccccc2)C1 (configuration not stated)
inactive: [4] 88 % of control | [5] 100 % of control | endpoint: mean survival time, dose: 400.0 mg/kg/injection, schedule: Q04DX002 (ip), vehicle: saline with Tween-80 92 % of control
